Laboratory results taken from publication PMC4508061, “Selectivity Profiling and Biological Activity of Novel β-Carbolines as Potent and Selective DYRK1 Kinase Inhibitors” (PLoS ONE, 2015).

How the values were obtained:
Assay in all cases: ProQinase radiometric kinase panel
Conditions in all cases: mean of 2 exp.
DDR2 = DDR2 (Homo sapiens, UniProt Q16832)
TYRO3 = TYRO3 (Homo sapiens, UniProt Q06418)
CDC42BPA = CDC42BPA (Homo sapiens, UniProt Q5VT25)
TGFB-R1 = TGFB-R1 (Homo sapiens, UniProt P36897)
NEK11 = NEK11 (Homo sapiens, UniProt Q8NG66)
BLK = BLK (Homo sapiens, UniProt P51451)
PBK = PBK (Homo sapiens, UniProt Q96KB5)
ROCK1 = ROCK1 (Homo sapiens, UniProt Q13464)
ZAP70 = ZAP70 (Homo sapiens, UniProt P43403)
PKA = PKA (Homo sapiens, UniProt P17612)
LIMK2 = LIMK2 (Homo sapiens, UniProt P53671)
PIM2 = PIM2 (Homo sapiens, UniProt Q9P1W9)
MAP3K1 = MAP3K1 (Homo sapiens, UniProt Q13233)
PYK2 = PYK2 (Homo sapiens, UniProt Q14289)
PDK1 = PDK1 (Homo sapiens, UniProt O15530)
CDK9/CycT1 = CDK9/CycT1 (Homo sapiens, UniProt P50750)
AXL = AXL (Homo sapiens, UniProt P30530)
FAK = FAK (Homo sapiens, UniProt Q05397)
CDK9/CycK = CDK9/CycK (Homo sapiens, UniProt P50750)
CK2-alpha2 = CK2-alpha2 (Homo sapiens, UniProt P19784)
YES = YES (Homo sapiens, UniProt P07947)
PAK4 = PAK4 (Homo sapiens, UniProt O96013)
PKC-delta = PKC-delta (Homo sapiens, UniProt Q05655)
PKC-delta, sequence (Q05655 whole entry): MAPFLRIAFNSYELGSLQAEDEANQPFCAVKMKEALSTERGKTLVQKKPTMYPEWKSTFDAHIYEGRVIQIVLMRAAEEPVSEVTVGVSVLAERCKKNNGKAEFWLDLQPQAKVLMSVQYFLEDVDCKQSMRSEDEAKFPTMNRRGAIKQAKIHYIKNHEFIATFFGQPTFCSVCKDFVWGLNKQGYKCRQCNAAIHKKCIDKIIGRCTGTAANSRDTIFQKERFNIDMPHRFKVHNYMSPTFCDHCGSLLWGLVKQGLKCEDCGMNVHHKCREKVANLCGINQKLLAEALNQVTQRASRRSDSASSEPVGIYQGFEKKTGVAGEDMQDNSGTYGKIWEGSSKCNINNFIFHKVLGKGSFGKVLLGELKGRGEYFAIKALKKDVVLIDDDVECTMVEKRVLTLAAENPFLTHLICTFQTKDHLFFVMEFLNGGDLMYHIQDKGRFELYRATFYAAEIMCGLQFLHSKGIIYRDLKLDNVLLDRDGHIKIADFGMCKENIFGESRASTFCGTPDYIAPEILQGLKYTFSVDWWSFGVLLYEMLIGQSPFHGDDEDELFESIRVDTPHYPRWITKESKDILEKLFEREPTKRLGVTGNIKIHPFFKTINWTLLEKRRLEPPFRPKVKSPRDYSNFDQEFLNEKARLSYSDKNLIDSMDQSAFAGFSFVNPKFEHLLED

LRRK2 = LRRK2 (Homo sapiens, UniProt Q5S007)
LRRK2, sequence (Q5S007 whole entry): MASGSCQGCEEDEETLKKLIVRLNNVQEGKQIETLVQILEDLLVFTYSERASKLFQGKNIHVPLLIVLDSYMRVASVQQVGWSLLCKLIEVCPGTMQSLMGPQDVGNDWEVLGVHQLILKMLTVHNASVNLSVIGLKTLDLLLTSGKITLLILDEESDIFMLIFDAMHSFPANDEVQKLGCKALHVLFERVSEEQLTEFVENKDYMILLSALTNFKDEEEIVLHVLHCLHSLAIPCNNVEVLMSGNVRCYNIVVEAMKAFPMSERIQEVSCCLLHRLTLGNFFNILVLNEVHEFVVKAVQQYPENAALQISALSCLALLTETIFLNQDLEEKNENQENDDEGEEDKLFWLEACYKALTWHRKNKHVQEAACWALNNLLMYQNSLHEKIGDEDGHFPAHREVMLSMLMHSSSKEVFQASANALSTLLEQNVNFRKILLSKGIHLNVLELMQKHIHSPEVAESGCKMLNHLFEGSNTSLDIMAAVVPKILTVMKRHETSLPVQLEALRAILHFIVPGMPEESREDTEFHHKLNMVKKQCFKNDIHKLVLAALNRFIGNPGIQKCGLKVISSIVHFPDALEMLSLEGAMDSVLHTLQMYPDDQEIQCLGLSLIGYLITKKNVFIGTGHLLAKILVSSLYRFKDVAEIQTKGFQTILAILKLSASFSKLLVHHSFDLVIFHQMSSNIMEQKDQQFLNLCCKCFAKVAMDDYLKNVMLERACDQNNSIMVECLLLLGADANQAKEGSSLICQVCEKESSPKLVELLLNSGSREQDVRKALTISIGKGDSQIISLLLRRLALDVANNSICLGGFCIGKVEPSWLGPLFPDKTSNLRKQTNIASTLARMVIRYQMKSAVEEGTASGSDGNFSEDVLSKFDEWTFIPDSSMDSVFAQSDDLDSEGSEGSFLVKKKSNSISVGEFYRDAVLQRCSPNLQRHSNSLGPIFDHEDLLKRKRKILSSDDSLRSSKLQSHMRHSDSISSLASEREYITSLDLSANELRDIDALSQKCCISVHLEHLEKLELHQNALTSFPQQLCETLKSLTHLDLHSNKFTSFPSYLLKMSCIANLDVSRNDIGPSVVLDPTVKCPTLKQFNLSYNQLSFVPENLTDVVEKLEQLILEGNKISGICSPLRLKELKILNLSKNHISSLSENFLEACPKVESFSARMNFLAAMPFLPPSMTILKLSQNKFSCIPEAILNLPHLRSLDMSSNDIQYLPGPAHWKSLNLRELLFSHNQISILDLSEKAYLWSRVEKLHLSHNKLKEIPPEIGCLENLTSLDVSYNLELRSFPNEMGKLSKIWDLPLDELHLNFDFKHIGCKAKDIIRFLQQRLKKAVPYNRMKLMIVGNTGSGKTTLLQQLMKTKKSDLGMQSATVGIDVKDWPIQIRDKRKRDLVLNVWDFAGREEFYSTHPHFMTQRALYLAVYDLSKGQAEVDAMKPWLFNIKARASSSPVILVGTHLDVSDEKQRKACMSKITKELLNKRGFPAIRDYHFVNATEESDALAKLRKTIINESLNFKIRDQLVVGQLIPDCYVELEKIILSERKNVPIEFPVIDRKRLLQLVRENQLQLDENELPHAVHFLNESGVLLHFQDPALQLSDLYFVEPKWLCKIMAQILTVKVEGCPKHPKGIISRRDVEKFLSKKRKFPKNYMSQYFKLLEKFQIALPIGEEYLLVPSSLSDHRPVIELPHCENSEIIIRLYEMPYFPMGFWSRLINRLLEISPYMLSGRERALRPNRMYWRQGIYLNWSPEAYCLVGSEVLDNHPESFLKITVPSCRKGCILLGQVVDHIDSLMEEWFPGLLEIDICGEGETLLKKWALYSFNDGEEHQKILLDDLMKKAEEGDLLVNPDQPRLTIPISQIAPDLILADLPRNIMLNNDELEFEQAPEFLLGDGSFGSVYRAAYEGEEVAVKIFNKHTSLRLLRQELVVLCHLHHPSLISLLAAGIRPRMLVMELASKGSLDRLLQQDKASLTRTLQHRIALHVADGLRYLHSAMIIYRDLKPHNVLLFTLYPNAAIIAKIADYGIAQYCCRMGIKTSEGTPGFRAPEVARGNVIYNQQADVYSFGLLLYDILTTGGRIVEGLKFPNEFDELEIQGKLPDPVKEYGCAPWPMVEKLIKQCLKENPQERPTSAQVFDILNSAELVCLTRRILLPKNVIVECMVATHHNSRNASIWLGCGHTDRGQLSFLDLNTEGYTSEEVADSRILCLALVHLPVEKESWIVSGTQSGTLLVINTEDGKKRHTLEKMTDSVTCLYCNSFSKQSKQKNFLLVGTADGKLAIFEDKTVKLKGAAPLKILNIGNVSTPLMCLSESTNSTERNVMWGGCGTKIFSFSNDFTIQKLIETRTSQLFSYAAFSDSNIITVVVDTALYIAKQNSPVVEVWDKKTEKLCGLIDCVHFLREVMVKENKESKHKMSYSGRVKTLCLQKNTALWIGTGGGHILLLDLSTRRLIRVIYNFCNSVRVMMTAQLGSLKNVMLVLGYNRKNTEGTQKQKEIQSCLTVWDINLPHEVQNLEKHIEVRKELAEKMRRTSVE

NEK9 = NEK9 (Homo sapiens, UniProt Q8TD19)
COT = COT (Homo sapiens, UniProt P41279)
EPHA5 = EPHA5 (Homo sapiens, UniProt P54756)
SNK = SNK (Homo sapiens, UniProt Q9NYY3)
MEKK2 = MEKK2 (Homo sapiens, UniProt Q9Y2U5)
CDC42BPB = CDC42BPB (Homo sapiens, UniProt Q9Y5S2)
CK1-delta = CK1-delta (Homo sapiens, UniProt P48730)
MST1 = MST1 (Homo sapiens, UniProt Q13043)
JAK2 = JAK2 (Homo sapiens, UniProt O60674)
SLK = SLK (Homo sapiens, UniProt Q9H2G2)
PRKX = PRKX (Homo sapiens, UniProt P51817)
CK1-alpha1 = CK1-alpha1 (Homo sapiens, UniProt P48729)
MINK1 = MINK1 (Homo sapiens, UniProt Q8N4C8)
EPHA1 = EPHA1 (Homo sapiens, UniProt P21709)
EPHA1, sequence (P21709 26-976): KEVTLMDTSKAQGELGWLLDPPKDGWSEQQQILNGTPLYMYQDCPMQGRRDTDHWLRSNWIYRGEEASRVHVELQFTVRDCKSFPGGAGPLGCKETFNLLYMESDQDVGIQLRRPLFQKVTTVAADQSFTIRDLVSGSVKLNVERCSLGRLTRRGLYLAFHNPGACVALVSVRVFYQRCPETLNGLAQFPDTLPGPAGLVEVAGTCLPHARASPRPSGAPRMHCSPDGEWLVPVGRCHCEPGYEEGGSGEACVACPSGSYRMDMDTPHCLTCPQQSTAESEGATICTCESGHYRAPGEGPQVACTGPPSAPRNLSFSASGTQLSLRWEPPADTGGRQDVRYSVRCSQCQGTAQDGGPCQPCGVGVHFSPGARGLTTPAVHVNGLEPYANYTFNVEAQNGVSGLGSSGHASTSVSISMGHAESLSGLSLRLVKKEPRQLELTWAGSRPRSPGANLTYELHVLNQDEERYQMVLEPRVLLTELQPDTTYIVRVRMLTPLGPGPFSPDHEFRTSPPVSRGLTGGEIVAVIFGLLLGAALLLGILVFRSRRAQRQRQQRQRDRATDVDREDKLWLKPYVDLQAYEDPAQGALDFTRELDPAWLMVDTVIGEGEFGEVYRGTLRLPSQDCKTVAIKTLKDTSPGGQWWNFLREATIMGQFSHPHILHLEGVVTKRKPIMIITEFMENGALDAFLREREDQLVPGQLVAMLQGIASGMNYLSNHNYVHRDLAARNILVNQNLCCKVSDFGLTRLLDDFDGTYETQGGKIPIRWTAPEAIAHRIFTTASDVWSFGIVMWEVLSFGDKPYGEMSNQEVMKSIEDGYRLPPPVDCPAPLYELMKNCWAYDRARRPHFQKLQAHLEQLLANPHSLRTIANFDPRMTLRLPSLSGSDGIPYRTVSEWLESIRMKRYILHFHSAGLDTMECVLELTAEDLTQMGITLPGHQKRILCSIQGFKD

MARK4 = MARK4 (Homo sapiens, UniProt Q96L34)
TSF1 = TSF1 (Homo sapiens, UniProt O75716)

DDR2, sequence (Q16832 22-855): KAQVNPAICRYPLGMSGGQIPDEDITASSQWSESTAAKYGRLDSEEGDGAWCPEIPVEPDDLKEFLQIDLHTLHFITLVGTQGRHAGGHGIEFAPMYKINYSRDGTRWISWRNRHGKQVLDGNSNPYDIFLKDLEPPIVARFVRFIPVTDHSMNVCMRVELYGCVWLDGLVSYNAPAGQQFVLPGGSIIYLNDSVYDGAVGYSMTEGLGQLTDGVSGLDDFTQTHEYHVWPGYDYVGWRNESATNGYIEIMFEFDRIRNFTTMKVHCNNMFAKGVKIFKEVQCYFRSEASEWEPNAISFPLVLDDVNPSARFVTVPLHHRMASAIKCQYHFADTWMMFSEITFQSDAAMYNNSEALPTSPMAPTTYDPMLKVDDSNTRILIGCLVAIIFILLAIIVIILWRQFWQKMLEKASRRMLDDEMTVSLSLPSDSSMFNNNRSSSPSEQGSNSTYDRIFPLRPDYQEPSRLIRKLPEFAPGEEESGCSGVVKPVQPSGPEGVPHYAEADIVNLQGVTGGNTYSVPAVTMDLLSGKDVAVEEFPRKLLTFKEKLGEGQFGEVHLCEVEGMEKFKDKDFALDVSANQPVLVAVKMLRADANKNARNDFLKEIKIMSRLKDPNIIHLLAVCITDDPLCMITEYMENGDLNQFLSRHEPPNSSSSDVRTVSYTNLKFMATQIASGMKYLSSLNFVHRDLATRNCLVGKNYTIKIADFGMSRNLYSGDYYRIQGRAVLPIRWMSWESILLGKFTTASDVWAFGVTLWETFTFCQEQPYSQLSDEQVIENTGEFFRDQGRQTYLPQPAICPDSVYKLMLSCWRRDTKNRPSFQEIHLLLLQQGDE

With COc1ccc2c3ccnc(Cl)c3n(CC#N)c2c1 [AnnH75] the “residual activity at 1 µM, Mean” value (DDR2) was 97 % of control, the “residual activity at 1 µM, Mean” value (TYRO3) was 93 % of control and the “residual activity at 1 µM, Mean” value (CDC42BPA) was 76 % of control. For the same compound, the “residual activity at 1 µM, Mean” value (TGFB-R1) was 104 % of control, the “residual activity at 1 µM, Mean” value (NEK11) was 94 % of control and the “residual activity at 1 µM, Mean” value (BLK) was 100 % of control. The “residual activity at 1 µM, Mean” value (PBK) was 94 % of control, the “residual activity at 1 µM, Mean” value (ROCK1) was 73 % of control and the “residual activity at 1 µM, Mean” value (ZAP70) was 97 % of control. For the same compound, the “residual activity at 1 µM, Mean” value (PKA) was 105 % of control, the “residual activity at 1 µM, Mean” value (LIMK2) was 94 % of control and the “residual activity at 1 µM, Mean” value (PIM2) was 107 % of control. The “residual activity at 1 µM, Mean” value (MAP3K1) was 97 % of control, the “residual activity at 1 µM, Mean” value (PYK2) was 110 % of control and the “residual activity at 1 µM, Mean” value (PDK1) was 99 % of control. For the same compound, the “residual activity at 1 µM, Mean” value (CDK9/CycT1) was 85 % of control, the “residual activity at 1 µM, Mean” value (AXL) was 95 % of control and the “residual activity at 1 µM, Mean” value (FAK) was 103 % of control. The “residual activity at 1 µM, Mean” value (CDK9/CycK) was 52 % of control, the “residual activity at 1 µM, Mean” value (CK2-alpha2) was 101 % of control and the “residual activity at 1 µM, Mean” value (YES) was 83 % of control. For the same compound, the “residual activity at 1 µM, Mean” value (PAK4) was 94 % of control, the “residual activity at 1 µM, Mean” value (PKC-delta) was 105 % of control and the “residual activity at 1 µM, Mean” value (LRRK2) was 83 % of control. The “residual activity at 1 µM, Mean” value (NEK9) was 95 % of control, the “residual activity at 1 µM, Mean” value (COT) was 88 % of control and the “residual activity at 1 µM, Mean” value (EPHA5) was 84 % of control. For the same compound, the “residual activity at 1 µM, Mean” value (SNK) was 92 % of control, the “residual activity at 1 µM, Mean” value (MEKK2) was 105 % of control and the “residual activity at 1 µM, Mean” value (CDC42BPB) was 94 % of control. For the same compound, the “residual activity at 1 µM, Mean” value (CK1-delta) was 71 % of control, the “residual activity at 1 µM, Mean” value (MST1) was 91 % of control and the “residual activity at 1 µM, Mean” value (JAK2) was 99 % of control. The “residual activity at 1 µM, Mean” value (SLK) was 99 % of control, the “residual activity at 1 µM, Mean” value (PRKX) was 80 % of control and the “residual activity at 1 µM, Mean” value (CK1-alpha1) was 90 % of control. For the same compound, the “residual activity at 1 µM, Mean” value (MINK1) was 92 % of control, the “residual activity at 1 µM, Mean” value (EPHA1) was 92 % of control and the “residual activity at 1 µM, Mean” value (MARK4) was 104 % of control. The “residual activity at 1 µM, Mean” value (TSF1) was 97 % of control.
